Measurements published in patent publication US20240316067A1, “METHODS OF DECREASING HEPARAN SULFATE EXPRESSION USING EXT1 INHIBITORS” (priority 2023, published 2024).

What was measured:
Type in all cases: cell-based
[1] = test system: HS3ST1; experiment: HS3ST1 reporter cell line, HTS of FDA-approved drug library (EC-50, CCK-8); conditions: a listed drug is a confirmed inhibitor
Description: FIGS. 13A-13C show EC-50 and CCK-8 experiments on HS3ST1 using bortezomib.
FIGS. 14A-14C show EC-50 and CCK-8 experiments on HS3ST1 using zinc pyrithione.
FIGS. 15A-15B show EC-50 and CCK-8 experiments on HS3ST1 using artesunate.
(§1) Using a stable cell line with promoter luciferase reporter of the HS-biosynthetic gene EXT1, the EXT1 and other HS-biosynthetic gene reporter cell lines were screened with an FDA-approved drug library. (FIG. 1; FIG. 2)

[2] = test system: EXT1; experiment: EXT1 promoter luciferase reporter stable cell line, HTS of FDA-approved drug library (EC-50, CCK-8); conditions: for confirmed candidates when screened with respect to EXT1: EC-50 and CCK-8, 10 μL; for Inhibition Candidate, confirmation at lower concentration: EXT1 cell line, 2nd confirmatory screen, a listed drug is a confirmed inhibitor
Description: as §1

[3] = test system: HS3ST4; experiment: HS3ST4 reporter cell line, HTS of FDA-approved drug library; conditions: a listed drug is a confirmed inhibitor
Description: as §1

Question: For `C[C@H]1[C@H](OC(=O)CCC(=O)O)O[C@@H]2O[C@@]3(C)CC[C@H]4[C@H](C)CC[C@@H]1[C@@]24OO3` [Artesunate], which “Inhibition Candidate, confirmation at lower concentration” value [1] is on record?
Answer: A1- Artesunate

Question: `CC(C)C[C@H](NC(=O)[C@H](Cc1ccccc1)NC(=O)c1cnccn1)B(O)O` [Bortezomib] was tested. Which “Inhibition Candidate, confirmation at lower concentration” value [1] did it give?
Answer: B3- Bortezomib

Question: Which results are given for `C=C1/C(=C\C=C2/CCC[C@]3(C)[C@@H]([C@H](C)CCCC(C)(C)O)CC[C@@H]23)C[C@@H](O)C[C@@H]1O` [Calcitriol, 1, 25-dihydroxycholecalciferol]?
Answer: confirmed candidates when screened with respect to EXT1 [2]: confirmed candidates; Inhibition Candidate, confirmation at lower concentration [2]: B2- Calcitriol

Question: How did the “Inhibition Candidate, confirmation at lower concentration” value [3] turn out when `COc1ccc(/C=C\c2cc(OC)c(OC)c(OC)c2)cc1OP(=O)(O)O` [Frosbretabullin, Fosbretabulin] was run?
Answer: D5- Frosbretabullin

Question: How did the “Inhibition Candidate, confirmation at lower concentration” value [3] turn out when `O=C(Nc1ccc([N+](=O)[O-])cc1Cl)c1cc(Cl)ccc1O` [Niclosamide] was run?
Answer: A6- Niclosamide

Question: What does the source list for `C=C1CC[C@H](O)C/C1=C/C=C1\CCC[C@]2(C)[C@@H]([C@H](C)CCCC(C)C)CC[C@@H]12` [Vitamin D3, cholecalciferol]?
Answer: confirmed candidates when screened with respect to EXT1 [2]: confirmed candidates; Inhibition Candidate, confirmation at lower concentration [2]: D5- Vitamin D3; Inhibition Candidate, confirmation at lower concentration ([2]; listed as vitamin D3): confirmed to inhibit at low doses

Question: Zinc pyrithione was tested. Which “Inhibition Candidate, confirmation at lower concentration” value [1] did it give?
Answer: D6- Zinc Pyrithione
